From ChEMBL document CHEMBL1152969, “Verbesinosides A-F, 15,27-cyclooleanane saponins from the American native plant Verbesina virginica” (J Nat Prod, 2009)
Active and inactive are the calls of the source.

How the values were obtained:
Format in all cases: functional, organism-based
Candida albicans = assay: Antimicrobial activity against Candida albicans at 20 ug/mL
Aspergillus fumigatus = assay: Antimicrobial activity against Aspergillus fumigatus at 20 ug/mL
Cryptococcus neoformans = assay: Antimicrobial activity against Cryptococcus neoformans at 20 ug/mL
Staphylococcus aureus [1] = assay: Antimicrobial activity against Staphylococcus aureus at 20 ug/mL
Staphylococcus aureus [2] = assay: Antimicrobial activity against methicillin-resistant Staphylococcus aureus at 20 ug/mL
Pseudomonas aeruginosa = assay: Antimicrobial activity against Pseudomonas aeruginosa at 20 ug/mL
[3] = test system: Mycobacterium intracellulare; assay: Antimicrobial activity against Mycobacterium intracellular at 20 ug/mL

Measured: Activity

COc1cc(C(=O)O[C@H]2C[C@]3(C(=O)O)C[C@@H]4C[C@]45C(=CCC4[C@@]6(C)CC[C@H](O[C@@H]7O[C@H](CO)[C@@H](O)[C@H](O)[C@H]7O[C@@H]7OC[C@@H](O[C@@H]8OC[C@@H](O)[C@H](O)[C@H]8O)[C@H](O)[C@H]7O)C(C)(C)[C@@H]6CC[C@]45C)[C@@H]3CC2(C)C)cc(OC)c1OC (some centres not stated)
inactive: all assays above
